Measured values: PMC2582240, “Enhanced A3 adenosine receptor selectivity of multivalent nucleoside-dendrimer conjugates” (Journal of Nanobiotechnology, 2008)

Legend:
A1 AR [1] = target: T1, A1 AR (Homo sapiens, UniProt P30542); test: Radioligand binding at A1 AR ([3H]CCPA, CHO cell membranes); conditions: for Difference in affinity between the human A1 and A3 ARs / Binding at the A1 AR, in words: radioligand binding; for A1 binding, class symbol: inhibition of radioligand binding at 10 μM
T1 sequence (P30542 1-326): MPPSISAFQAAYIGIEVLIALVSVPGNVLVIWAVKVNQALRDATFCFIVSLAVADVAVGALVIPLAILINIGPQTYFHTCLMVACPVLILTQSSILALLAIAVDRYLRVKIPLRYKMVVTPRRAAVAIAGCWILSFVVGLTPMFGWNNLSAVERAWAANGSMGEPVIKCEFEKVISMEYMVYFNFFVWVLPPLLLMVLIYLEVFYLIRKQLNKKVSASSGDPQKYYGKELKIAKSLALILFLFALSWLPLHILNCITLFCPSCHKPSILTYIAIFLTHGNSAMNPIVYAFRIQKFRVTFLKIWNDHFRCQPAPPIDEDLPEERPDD
Protocol: (§1) CHO (Chinese hamster ovary) cells stably expressing the recombinant human ARs were cultured in Dulbecco's modified Eagle medium (DMEM) and F12 (1:1) supplemented with 10% fetal bovine serum, 100 units/mL penicillin, 100 μg/mL streptomycin, and 2 μmol/mL glutamine. After harvesting, cells were homogenized and suspended. Cells were then centrifuged at 500 g for 10 min, and the pellet was resuspended in 50 mM Tris-HCl buffer (pH 7.5) containing 10 mM MgCl2. The suspension was homogenized and was then recentrifuged at 20 000 g for 20 min at 4°C. The resultant pellets were resuspended in Tris buffer, incubated with adenosine deaminase for 30 min at 37°C, and the suspension was stored at -80°C until the binding experiments. The protein concentration was measured using the BCA Protein Assay Kit from Pierce.
(§2) Radioligand binding assays were performed for A1 and A2A ARs, following the procedure described previously. Each tube in the binding assay contained 100 μL of membrane suspension (20 μg of protein), 50 μL of agonist radioligand, and 50 μL of increasing concentrations of the test ligands in Tris-HCl buffer (50 mM, pH 7.5) containing 10 mM MgCl2. The concentration of the dendrimer-ligand complexes are measured by the concentration of the dendrimer, not the ligand. Therefore, all Ki values are measured as Ki app values. Nonspecific binding was determined using a final concentration of 10 μM 5'-N-ethylcarboxamidoadenosine diluted with the buffer. The mixtures were incubated at 25°C for 60 min. Binding reactions were terminated by filtration through Whatman GF/B filters under a reduced pressure using a MT-24 cell harvester (Brandell, Gaithersburg, MD). Filters were washed three times with 5 mL of 50 mM ice-cold Tris-HCl buffer (pH 7.5). The radioactive agonists [^3H]2-chloro-N^6-cyclopentyladenosine and [^3H]2-(4-(2-carboxyethyl)phenylethylamino)-5'-N-ethylcarboxamido-adenosine were used for the A1 and A2A assays, respectively. All of the filters were washed 3 times with Tris-HCl, pH 7.5. Filters for A1 and A2A AR binding were placed in scintillation vials containing 5 mL of Hydrofluor scintillation buffer and counted using a Perkin Elmer Liquid Scintillation Analyzer. Filters for A3 AR binding were counted using a Packard Cobra II γ-counter. The Ki values were determined using GraphPad Prism for all assays.

A3 AR [2] = target: T2, A3 AR (Homo sapiens, UniProt P0DMS8); test: Radioligand binding at A3 AR ([125I]AB-MECA, CHO cell membranes)
T2 construct: expressed in transfected cells; host or cells: CHO cells, stably transfected
T2 sequence (P0DMS8 1-318): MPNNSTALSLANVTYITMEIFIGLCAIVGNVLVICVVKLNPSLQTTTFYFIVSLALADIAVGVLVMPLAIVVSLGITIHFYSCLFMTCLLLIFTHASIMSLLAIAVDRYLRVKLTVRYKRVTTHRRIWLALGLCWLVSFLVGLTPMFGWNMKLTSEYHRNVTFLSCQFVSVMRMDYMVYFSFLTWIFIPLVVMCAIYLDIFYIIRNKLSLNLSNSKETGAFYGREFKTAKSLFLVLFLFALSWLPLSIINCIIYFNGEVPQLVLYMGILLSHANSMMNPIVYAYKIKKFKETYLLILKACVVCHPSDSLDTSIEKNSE
Protocol: as §1
as §2, with “The radioactive agonists [^3H]2-chloro-N^6-cyclopentyladenosine and [^3H]2-(4-(2-carboxyethyl)phenylethylamino)-5'-N-ethylcarboxamido-adenosine were used for the A1 and A2A assays, respectively.” left out

A2A AR = target: T3, A2A AR (Homo sapiens, UniProt P29274); test: Radioligand binding at A2A AR ([3H]CGS21680, HEK cells)
T3 construct: expressed in transfected cells; host or cells: CHO
T3 sequence (P29274 whole entry): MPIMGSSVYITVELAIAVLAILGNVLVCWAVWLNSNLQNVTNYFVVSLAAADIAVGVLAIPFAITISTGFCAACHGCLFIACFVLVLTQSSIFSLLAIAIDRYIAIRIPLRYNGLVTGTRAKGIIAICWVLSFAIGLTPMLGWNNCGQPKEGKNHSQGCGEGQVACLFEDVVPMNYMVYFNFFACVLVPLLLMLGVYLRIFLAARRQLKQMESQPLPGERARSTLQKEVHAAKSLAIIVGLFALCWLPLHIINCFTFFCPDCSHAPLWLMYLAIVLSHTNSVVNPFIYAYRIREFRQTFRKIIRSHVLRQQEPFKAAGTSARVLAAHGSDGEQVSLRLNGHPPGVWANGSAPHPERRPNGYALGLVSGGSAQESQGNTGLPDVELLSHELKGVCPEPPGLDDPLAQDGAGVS
Protocol: as §1
as §2, with “The radioactive agonists [^3H]2-chloro-N^6-cyclopentyladenosine and [^3H]2-(4-(2-carboxyethyl)phenylethylamino)-5'-N-ethylcarboxamido-adenosine were used for the A1 and A2A assays, respectively.” left out

A1 AR [3] = target: T1, A1 AR; test: [35S]GTPγS binding assay in CHO A1 membranes; assay type: biochemical; conditions: for EC50: mean ± SEM, n = 3
Protocol: as §1
[^35S]GTPγS binding was measured in 200 μl of buffer containing 50 mM Tris-HCl (pH 7.4), 1 mM EDTA, 1 mM MgCl2, 10 μM GDP, 1 mM dithiothreitol, 100 mM NaCl, 3 units/ml adenosine deaminase, 0.2 nM [^35S]GTPγS, 0.004% CHAPS, 0.5% bovine serum albumin and increasing concentrations of the ligands. Samples were started by addition of the membrane suspension (5–10 μg protein/tube) to the test tubes and incubated at 25°C for 30 min. The assay was terminated by rapid filtration through Whatman GF/B filters, pre-soaked in 50 mM Tris-HCl (pH 7.4) containing 5 mM MgCl2 and 0.02% CHAPS. Non-specific binding of [^35S]GTPγS was measured in the presence of 10 μM unlabelled GTPγS. After the filters were washed, they were placed in scintillation vials containing 5 mL of Hydrofluor scintillation buffer and counted using a Perkin Elmer Liquid Scintillation Analyzer. The EC50 values were determined using GraphPad Prism for all assays.

[4] = system: ten-min bilateral cerebrovascular occlusion; conditions: cited from earlier work
A1 AR [5] = target: T1, A1 AR; test: cAMP assay (inhibition of forskolin-stimulated adenylyl cyclase) in CHO cells expressing A1 AR; assay type: cell-based; conditions: for EC50: cAMP inhibition, mean ± SEM, n = 3; for A1 (adenylyl cyclase), class word: at 10 μM, relative to total inhibition by ADAC
Protocol: (§3) CHO cells expressing either the A1 or A3 AR were seeded in 24 well plates and incubated at 37°C overnight. The following day the medium was removed and replaced with DMEM containing 50 mM HEPES, 10 μM rolipram, 3 U/ml adenosine deaminase and increasing concentrations of the compounds. After a 30 min incubation at 37°C, 10 μM of forskolin was added to stimulate cAMP levels, and the cells were incubated at 37°C for an additional 15 min. The medium was removed, and the cells were lysed with 200 μl of 0.1 M HCl. 100 μl of the HCl solution was used in the Sigma Direct cAMP Enzyme Immunoassay following the instructions provided with the kit.

A3 AR [6] = target: T2, A3 AR; test: cAMP assay (inhibition of forskolin-stimulated adenylyl cyclase) in CHO cells expressing A3 AR; assay type: cell-based; conditions: for EC50: cAMP inhibition, mean ± SEM, n = 3; for A3 (adenylyl cyclase), class word: relative to total inhibition by ADAC
Protocol: as §3

CHO cells = test: Light and fluorescent microscopy of CHO cells not expressing the A3 AR; assay type: cell-based, Chinese hamster; conditions: 10 μM, 1 h, one wash with PBS
Protocol: (§4) After one wash with PBS, the cells were imaged at 100× magnification on a Zeiss AxioVision D1 Imager, and both light and fluorescent pictures were obtained.
(§5) CHO or CHO A3 cells were seeded on a cover disk in a 6 well dish (250,000 cells per well). After the cells were incubated for 24 hrs at 37°C, the medium was removed and replaced with DMEM containing 10 μM of the 15 or 17. The cells were incubated for 1 h at 37°C and washed one time with PBS. The images were taken with at 100× manification using a Zeiss AxioVision D1 Imager equipped with AxioVision 4.5 software.

CHO A3 cells = test: Light and fluorescent microscopy of CHO A3 cells; assay type: cell-based, Chinese hamster; conditions: 10 μM, 1 h, one wash with PBS, CHO cells stably expressing the A3 AR
Protocol: as §4, §5

[7] = inhibition of radioligand binding at 10 μM

Compound | Ki (A1 AR [1]) [nM] | Difference in affinity between the human A1 and A3 ARs (A1 AR [1]) [fold] | Ki (A3 AR [2]) [nM] | Ki (A2A AR) [nM] | EC50 (A1 AR [3]) [nM] | EC50 (A1 AR [5]) [nM] | EC50 (A3 AR [6]) [nM] | A1 binding, class symbol (A1 AR [1]) | Binding at the A1 AR, in words (A1 AR [1]) | Inhibition of cAMP production at the A1 AR, in words (A1 AR [5]) | A1 (adenylyl cyclase), class word (A1 AR [5]) | A3 (adenylyl cyclase), class word (A3 AR [6]; at 10 μM) | further results
NCCNC(=O)Cc1ccc(NC(=O)Cc2ccc(Nc3ncnc4c3ncn4[C@@H]3O[C@H](CO)[C@@H](O)[C@H]3O)cc2)cc1 [Compound 1, N^6-[4-[[[4-[[[(2-aminoethyl)amino]carbonyl]methyl]anilino]-carbonyl]methyl]phenyl]adenosine, reference compound] | 10.4 ± 3.8 | < 5 | 12.2 ± 4.1 | 370 ± 100 | 94 ± 26 | 400 ± 80 | 100 ± 50 |  |  |  |  |  | Protection against neuronal damage and mortality ([4]; acute or chronic administration prior to occlusion): protects against neuronal damage and mortality; Neuronal protection post-ischemia ([4]; given up to twelve hours post-ischemia): provides neuronal protection
O=C(O)CCc1ccc(NC(=S)NCCNC(=O)Cc2ccc(NC(=O)Cc3ccc(Nc4ncnc5c4ncn5[C@@H]4O[C@H](CO)[C@@H](O)[C@H]4O)cc3)cc2)cc1 [Compound 4, 3-(4-(3-(2-(2-(4-(2-(4-(9-((2R,3R,4S,5R)-3,4-Dihydroxy-5-(hydroxymethyl)tetrahydrofuran-2-yl)-9H-purin-6-ylamino)phenyl)acetamido)-phenyl)acetamido)ethyl)thioureido)phenyl)pro-panoic acid] | 30 ± 9 | < 5 | 74 ± 20 | 800 ± 360 | 1300 ± 400 | 350 ± 20 | 140 ± 70 |  |  |  |  |  | 
NCCNCCNC(=O)Cc1ccc(NC(=O)Cc2ccc(Nc3ncnc4c3ncn4[C@@H]3O[C@H](CO)[C@@H](O)[C@H]3O)cc2)cc1 [Compound 7, N-(2-(2-Aminoethylamino)ethyl)-2-(4-(2-(4-(9-((2R,3R,4S,5R)-3,4-dihydroxy-5-(hydroxymethyl)-tetrahydrofuran-2-yl)-9H-purin-6-ylamino)-phenyl)acetamido)phenyl)acetamide] | 43 ± 5 | < 5 | 9.5 ± 2 | 300 ± 20 | 63 ± 14 | 89 ± 17 | 36 ± 13 |  |  |  |  |  | Fold more potent than 4 in activation of GTPγS binding via the A1 AR (A1 AR [3]): 20 fold; Fold more potent than either ADAC or 4 in adenylyl cyclase assay (A1 AR [5]; A1 AR): 3 – 7 fold; Fold more potent than either ADAC or 4 in adenylyl cyclase assay (A3 AR [6]; A3 AR): 3 – 7 fold
G2.5 PAMAM – AF488 [Compound 15] |  |  |  |  |  |  |  | NB^b (NB, No binding. Inhibition of radioligand binding < 10% at 10 μM) | no binding | no binding or activity | inactive^c | inactive^c | A3 binding, class symbol (A3 AR [2]; [7]): NB^b (NB, No binding. Inhibition of radioligand binding < 10% at 10 μM); A2A binding, class symbol (A2A AR; [7]): NB^b (NB, No binding. Inhibition of radioligand binding < 10% at 10 μM); Fluorescent binding to cells (CHO cells): Neither type of CHO cells were bound; Fluorescent binding to cells (CHO A3 cells): Neither type of CHO cells were bound
G3 PAMAM – 23 Ac – AF488 [Compound 11] |  |  |  |  |  |  |  | NB^b (NB, No binding. Inhibition of radioligand binding < 10% at 10 μM) | no binding | unable to significantly inhibit cAMP production | inactive^c | inactive^c | Inhibition of cAMP production at the A3 AR, in words (A3 AR [6]; at 10 μM): unable to significantly inhibit cAMP production
